According to patent publication US20090156569A1, “ORAL CONTRACEPTIVE SPRAY” (N.V. Organon, priority 2007, published 2009):
In brackets after ≈: the same amount, converted by molar mass. Where two headings read alike, the source gives them in different places.

How the values were obtained:
[1] = Solubility of the active ingredients in liquid solutions (Liquids 1-5); format: physicochemical; conditions: for solubility: aqueous with cosolvent or surfactant or cyclodextrin
Experimental: Solutions were prepared essentially according to the procedure as described in Example 1. The solubility of each one of the active ingredients desogestrel, 3-β-hydroxydesogestrel, 3-keto desogestrel and ethinyl estradiol in these solutions was tested.

[2] = set-up: species or system human; conditions: in vivo
Experimental: Sixteen healthy female subjects were treated with 0.1 ml of the oral spray as described in Example 1 or with Marvelon® tablets (150 μg desogestrel, 30 μg ethinyl estradiol) in a cross over design. The spray was administered sublingually. Marvelon® was ingested. Serum concentration versus time profiles were obtained for etonogestrel and plasma concentration versus time profiles were obtained for ethinyl estradiol. FIGS. 2, 3, 4 and 5 show the average values of the serum/plasma concentrations versus time profiles.
This leads to the conclusion that a lower dose of either etonogestrel, or ethinyl estradiol, or both is possible for oral mucosal administration.

[3] = Cross-over pharmacokinetic study: sublingual oral spray (75 μg etonogestrel) versus ingested Cerazette tablet; format: in vivo, human; conditions: oral mucosal administration of etonogestrel; FIGS. 6 and 7
Experimental: Sixteen healthy female subjects were treated with 0.1 ml of oral spray comprising the liquid as depicted in table 6 to administer 75 μg etonogestrel, or with Cerazette® tablets (75 μg desogestrel) in a cross over design. The spray has been administered sublingually. Cerazette® has been ingested. Serum concentration versus time profiles were obtained for etonogestrel.
This leads to the conclusion that a lower dose of either etonogestrel is possible for oral mucosal administration to achieve a similar pharmacological effect.

[4] = exposure of etonogestrel after oral ingestion as its prodrug desogestrel; cited from earlier work
[5] = Liquid 1: water 25, ethanol 20, glycerol 25, propylene glycol 25, polysorbate 80 5 % v/v, read-out: Solubility in Liquid 1
[6] = Liquid 2: water 25, ethanol 25, glycerol 20, propylene glycol 25, polysorbate 80 5 % v/v, read-out: Solubility in Liquid 2
[7] = Liquid 3: water 25, ethanol 30, glycerol 15, propylene glycol 25, polysorbate 80 5 % v/v, read-out: Solubility in Liquid 3
[8] = Liquid 4: water 25, ethanol 25, glycerol 25, propylene glycol 25, polysorbate 80 0 % v/v, read-out: Solubility in Liquid 4
[9] = Liquid 5: water 30, ethanol 30, glycerol 25, propylene glycol 15, polysorbate 80 0 % v/v, read-out: Solubility in Liquid 5

solubility [1, 5] | solubility [1, 6] | solubility [1, 7] | solubility [1, 8] | solubility [1, 9] | levels of etonogestrel (in serum) compared to oral ingestion of equivalent amounts using a tablet [2] | levels of etonogestrel (in serum) compared to oral ingestion of an equivalent amount of desogestrel using a tablet [3] | levels of ethinyl estradiol (in plasma) compared to oral ingestion of equivalent amounts using a tablet [2] | SMILES | oral bioavailability [4] | Solubility in Liquid 1 [1] | Solubility in Liquid 2 [1] | Solubility in Liquid 3 [1] | Solubility in Liquid 4 [1] | Solubility in Liquid 5 [1]
11300 µg/mL (≈ 36.4 mM) | 12400 µg/mL (≈ 39.9 mM) | 13400 µg/mL (≈ 43.2 mM) | 2100 µg/mL (≈ 6.76 mM) | 1500 µg/mL (≈ 4.83 mM) |  |  |  | C#C[C@]1(O)CC[C@H]2[C@@H]3CCC4=CCCC[C@@H]4[C@H]3C(=C)C[C@@]21CC [Desogestrel] |  |  |  |  |  | 
5500 µg/mL (≈ 17 mM) | 5800 µg/mL (≈ 17.9 mM) | 7300 µg/mL (≈ 22.5 mM) | 4200 µg/mL (≈ 12.9 mM) | 3400 µg/mL (≈ 10.5 mM) | much higher levels | much higher levels |  | C#C[C@]1(O)CC[C@H]2[C@@H]3CCC4=CC(=O)CC[C@@H]4[C@H]3C(=C)C[C@@]21CC [Etonogestrel, 13-ethyl-11methylene-17β-hydroxy-18,19-dinor-17α-pregnen-3-one] | about 80% |  |  |  |  | 
≥ 10900 µg/mL | ≥ 10800 µg/mL | ≥ 14100 µg/mL | 11200 µg/mL (≈ 37.8 mM) | 12400 µg/mL (≈ 41.8 mM) |  |  | much higher levels | C#C[C@]1(O)CC[C@H]2[C@@H]3CCc4cc(O)ccc4[C@H]3CC[C@@]21C [Ethinyl Estradiol] |  |  |  |  |  | 
 |  |  |  |  |  |  |  | C#C[C@]1(O)CC[C@H]2[C@@H]3CCC4=C[C@@H](O)CC[C@@H]4[C@H]3C(=C)C[C@@]21CC [3-β-Hydroxy-desogestrel] |  | ≧8.8 mg/mL | ≧7.0 mg/mL | ≧6.1 mg/mL | ≧6.9 mg/mL | ≧8.7 mg/mL
